Laboratory results taken from patent publication US12077537B2 (Gilead Sciences, Inc., priority 2020, dated 2024).

What follows are molecules tested on HIV-IIIb (assay: Antiviral assay in MT4 cells). Details: Human immunodeficiency virus 1, MT4, 120 h; MT-4 cells mixed with HIV-IIIb at m.o.i. 0.003; 5 days at 37° C.; CellTiter-Glo luminescence; 50% decrease in signal, a measure of HIV-1 replication.
Assay type: cell-based
Procedure, shortened: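 MT-4 cells were infected with HIV-IIIb at m.o.i. 0.003 for 1 hour, then added to 3-fold serially diluted compound (10 concentrations, quadruplicate) in medium with 10% FBS. After 5 days at 37° C, cell viability was read by CellTiter-Glo chemiluminescence.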

Going from `Cn1nc(NS(C)(=O)=O)c2c(Cl)ccc(-c3cc4c(nc3[C@H](Cc3cc(F)cc(F)c3)NC(=O)Cn3nc(C(F)F)c5c3C(F)(F)[C@@H]3C[C@H]53)CCC(=O)N4)c21` [Compound 136, N—((S)-1-(3-(4-chloro-1-methyl-3-(methylsulfonamido)-1H-indazol-7-yl)-6-oxo-5,6,7,8-tetrahydro-1,5-naphthyridin-2-yl)-2-(3,5-difluorophenyl)ethyl)-2-((3bS,4aR)-3-(difluoromethyl)-5,5-difluoro-3b,4,4a,5-tetrahydro-1H-cyclopropa[3,4]cyclopenta[1,2-c]pyrazol-1-yl)acetamide] to `CN(C)C1CN(c2nc3nc([C@H](Cc4cc(F)cc(F)c4)NC(=O)Cn4nc(C(F)(F)F)c5c4C(F)(F)[C@@H]4C[C@H]54)c(-c4cccc5c(NS(C)(=O)=O)nn(C)c45)cc3s2)C1` [Compound 150, 2-((3bS,4aR)-5,5-difluoro-3-(trifluoromethyl)-3b,4,4a,5-tetrahydro-1H-cyclopropa[3,4]cyclopenta[1,2-c]pyrazol-1-yl)-N—((S)-2-(3,5-difluorophenyl)-1-(2-(3-(dimethylamino)azetidin-1-yl)-6-(1-methyl-3-(methylsulfonamido)-1H-indazol-7-yl)thiazolo[4,5-b]pyridin-5-yl)ethyl)acetamide], the EC50 rises from 4.3 nM to 8 nM (1.9-fold). The first is the more potent here.

First: CC(C)(C)OC(=O)N1CCC[C@H]1c1nc(-c2ccc(C#Cc3nc4nc([C@H](Cc5cc(F)cc(F)c5)NC(=O)Cn5nc(C(F)F)c6c5C(F)(F)CCC6(F)F)c(-c5ccc(F)c(C(N)=O)c5)cc4s3)cc2)c[nH]1 [Compound 137, tert-butyl (S)-2-(4-(4-((6-(3-carbamoyl-4-fluorophenyl)-5-((S)-1-(2-(3-(difluoromethyl)-4,4,7,7-tetrafluoro-4,5,6,7-tetrahydro-1H-indazol-1-yl)acetamido)-2-(3,5-difluorophenyl)ethyl)thiazolo[4,5-b]pyridin-2-yl)ethynyl)phenyl)-1H-imidazol-2-yl)pyrrolidine-1-carboxylate]
Second: NC(=O)c1cc(-c2cc3sc(C#Cc4ccc(-c5c[nH]c([C@@H]6CCCN6)n5)cc4)nc3nc2[C@H](Cc2cc(F)cc(F)c2)NC(=O)Cn2nc(C(F)F)c3c2C(F)(F)CCC3(F)F)ccc1F [Compound 138, 5-(5-((S)-1-(2-(3-(difluoromethyl)-4,4,7,7-tetrafluoro-4,5,6,7-tetrahydro-1H-indazol-1-yl)acetamido)-2-(3,5-difluorophenyl)ethyl)-2-((4-(2-((S)-pyrrolidin-2-yl)-1H-imidazol-4-yl)phenyl)ethynyl)thiazolo[4,5-b]pyridin-6-yl)-2-fluorobenzamide]
The EC50 of the first is 3.7-fold higher: 409 nM for the first, 112 nM for the second. The second is the more potent here.

Compared with `NC(=O)c1cc(-c2cc3sc(N4CCN(c5ccc6c(c5)OCCO6)CC4)nc3nc2[C@H](Cc2cc(F)cc(F)c2)NC(=O)Cn2nc(C(F)F)c3c2C(F)(F)CCC3(F)F)ccc1F` [Compound 139, (S)-5-(5-(1-(2-(3-(difluoromethyl)-4,4,7,7-tetrafluoro-4,5,6,7-tetrahydro-1H-indazol-1-yl)acetamido)-2-(3,5-difluorophenyl)ethyl)-2-(4-(2,3-dihydrobenzo[b][1,4]dioxin-6-yl)piperazin-1-yl)thiazolo[4,5-b]pyridin-6-yl)-2-fluorobenzamide], `NC(=O)c1cc(-c2cc3sc(N4CCN(c5ccc(Cl)cc5)CC4)nc3nc2[C@H](Cc2cc(F)cc(F)c2)NC(=O)Cn2nc(C(F)(F)F)c3c2C(F)(F)[C@@H]2C[C@H]32)ccc1F` [Compound 140, 5-(2-(4-(4-chlorophenyl)piperazin-1-yl)-5-((S)-1-(2-((3bS,4aR)-5,5-difluoro-3-(trifluoromethyl)-3b,4,4a,5-tetrahydro-1H-cyclopropa[3,4]cyclopenta[1,2-c]pyrazol-1-yl)acetamido)-2-(3,5-difluorophenyl)ethyl)thiazolo[4,5-b]pyridin-6-yl)-2-fluorobenzamide] is 2.5-fold higher in EC50: 545 nM for the first, 1370 nM for the second. The first is the more potent here.

Going from `NC(=O)c1cc(-c2cc3sc(N4CCN(c5ccc(C(F)(F)F)cc5)CC4)nc3nc2[C@H](Cc2cc(F)cc(F)c2)NC(=O)Cn2nc(C(F)(F)F)c3c2C(F)(F)[C@@H]2C[C@H]32)ccc1F` [Compound 141, 5-(5-((S)-1-(2-((3bS,4aR)-5,5-difluoro-3-(trifluoromethyl)-3b,4,4a,5-tetrahydro-1H-cyclopropa[3,4]cyclopenta[1,2-c]pyrazol-1-yl)acetamido)-2-(3,5-difluorophenyl)ethyl)-2-(4-(4-(trifluoromethyl)phenyl)piperazin-1-yl)thiazolo[4,5-b]pyridin-6-yl)-2-fluorobenzamide] to `NC(=O)c1cc(-c2cc3sc(-c4cn[nH]c4)nc3nc2[C@H](Cc2cc(F)cc(F)c2)NC(=O)Cn2nc(C(F)(F)F)c3c2C(F)(F)[C@@H]2C[C@H]32)ccc1F` [Compound 149, 5-(5-((S)-1-(2-((3bS,4aR)-5,5-difluoro-3-(trifluoromethyl)-3b,4,4a,5-tetrahydro-1H-cyclopropa[3,4]cyclopenta[1,2-c]pyrazol-1-yl)acetamido)-2-(3,5-difluorophenyl)ethyl)-2-(1H-pyrazol-4-yl)thiazolo[4,5-b]pyridin-6-yl)-2-fluorobenzamide], the EC50 falls from 1810 nM to 106 nM (17-fold). The second is the more potent here.

First: CSc1nc2nc([C@H](Cc3cc(F)cc(F)c3)NC(=O)Cn3nc(C(F)(F)F)c4c3C(F)(F)[C@@H]3C[C@H]43)c(-c3ccc4c(c3)C(=O)NC4)cc2s1 [Compound 142, 2-((3bS,4aR)-5,5-difluoro-3-(trifluoromethyl)-3b,4,4a,5-tetrahydro-1H-cyclopropa[3,4]cyclopenta[1,2-c]pyrazol-1-yl)-N—((S)-2-(3,5-difluorophenyl)-1-(2-(methylthio)-6-(3-oxoisoindolin-5-yl)thiazolo[4,5-b]pyridin-5-yl)ethyl)acetamide]
Second: O=C(Cn1nc(C(F)(F)F)c2c1C(F)(F)[C@@H]1C[C@H]21)N[C@@H](Cc1cc(F)cc(F)c1)c1nc2nc(-c3ccc4c(c3)C(=O)NC4)sc2cc1-c1ccc2c(c1)C(=O)NC2 [Compound 143, N—((S)-1-(2,6-bis(3-oxoisoindolin-5-yl)thiazolo[4,5-b]pyridin-5-yl)-2-(3,5-difluorophenyl)ethyl)-2-((3bS,4aR)-5,5-difluoro-3-(trifluoromethyl)-3b,4,4a,5-tetrahydro-1H-cyclopropa[3,4]cyclopenta[1,2-c]pyrazol-1-yl)acetamide]
The EC50 of the first is 2.5-fold higher: 38.9 nM for the first, 15.5 nM for the second.

`O=C(Cn1nc(C(F)(F)F)c2c1C(F)(F)[C@@H]1C[C@H]21)N[C@@H](Cc1cc(F)cc(F)c1)c1nc2nc(-c3ccc(N4CCOCC4)cc3)sc2cc1-c1ccc2c(c1)C(=O)NC2` [Compound 144, 2-((3bS,4aR)-5,5-difluoro-3-(trifluoromethyl)-3b,4,4a,5-tetrahydro-1H-cyclopropa[3,4]cyclopenta[1,2-c]pyrazol-1-yl)-N—((S)-2-(3,5-difluorophenyl)-1-(2-(4-morpholinophenyl)-6-(3-oxoisoindolin-5-yl)thiazolo[4,5-b]pyridin-5-yl)ethyl)acetamide] and `O=C(Cn1nc(C(F)(F)F)c2c1C(F)(F)[C@@H]1C[C@H]21)N[C@@H](Cc1cc(F)cc(F)c1)c1nc2nc(-c3ccc(N4CCNCC4)cc3)sc2cc1-c1ccc2c(c1)C(=O)NC2` [Compound 147, 2-((3bS,4aR)-5,5-difluoro-3-(trifluoromethyl)-3b,4,4a,5-tetrahydro-1H-cyclopropa[3,4]cyclopenta[1,2-c]pyrazol-1-yl)-N—((S)-2-(3,5-difluorophenyl)-1-(6-(3-oxoisoindolin-5-yl)-2-(4-(piperazin-1-yl)phenyl)thiazolo[4,5-b]pyridin-5-yl)ethyl)acetamide] are within 1.5-fold of each other in EC50: 44.4 nM for the first, 37 nM for the second.

First: CC(C)(C)OC(=O)N1CCN(c2ccc(-c3nc4nc([C@H](Cc5cc(F)cc(F)c5)NC(=O)Cn5nc(C(F)(F)F)c6c5C(F)(F)[C@@H]5C[C@H]65)c(-c5ccc6c(c5)C(=O)NC6)cc4s3)cc2)CC1 [Compound 145, tert-butyl 4-(4-(5-((S)-1-(2-((3bS,4aR)-5,5-difluoro-3-(trifluoromethyl)-3b,4,4a,5-tetrahydro-1H-cyclopropa[3,4]cyclopenta[1,2-c]pyrazol-1-yl)acetamido)-2-(3,5-difluorophenyl)ethyl)-6-(3-oxoisoindolin-5-yl)thiazolo[4,5-b]pyridin-2-yl)phenyl)piperazine-1-carboxylate]
Second: NC(=O)c1cc(-c2cc3sc(-c4cncnc4)nc3nc2[C@H](Cc2cc(F)cc(F)c2)NC(=O)Cn2nc(C(F)(F)F)c3c2C(F)(F)[C@@H]2C[C@H]32)ccc1F [Compound 148, 5-(5-((S)-1-(2-((3bS,4aR)-5,5-difluoro-3-(trifluoromethyl)-3b,4,4a,5-tetrahydro-1H-cyclopropa[3,4]cyclopenta[1,2-c]pyrazol-1-yl)acetamido)-2-(3,5-difluorophenyl)ethyl)-2-(pyrimidin-5-yl)thiazolo[4,5-b]pyridin-6-yl)-2-fluorobenzamide]
The EC50 of the first is 4.1-fold higher: 370 nM for the first, 90.4 nM for the second. The second is the more potent here.

Compared with `CN(C)c1ncc(-c2nc3nc([C@H](Cc4cc(F)cc(F)c4)NC(=O)Cn4nc(C(F)(F)F)c5c4C(F)(F)[C@@H]4C[C@H]54)c(-c4cccc5c(NS(C)(=O)=O)nn(C)c45)cc3s2)cn1` [Compound 151, 2-((3bS,4aR)-5,5-difluoro-3-(trifluoromethyl)-3b,4,4a,5-tetrahydro-1H-cyclopropa[3,4]cyclopenta[1,2-c]pyrazol-1-yl)-N—((S)-2-(3,5-difluorophenyl)-1-(2-(2-(dimethylamino)pyrimidin-5-yl)-6-(1-methyl-3-(methylsulfonamido)-1H-indazol-7-yl)thiazolo[4,5-b]pyridin-5-yl)ethyl)acetamide], `O=C(Cn1nc(C(F)(F)F)c2c1CCCC2)N[C@@H](Cc1ccccc1)c1nc2ccccc2[nH]1` [Example 1, (S)—N-(1-(1H-benzo[d]imidazol-2-yl)-2-phenylethyl)-2-(3-(trifluoromethyl)-4,5,6,7-tetrahydro-1H-indazol-1-yl)acetamide] is 2100-fold higher in EC50: 14.1 nM for the first, 29700 nM for the second. The first is the more potent here.
